Experiments:
[1] = system: NCI-H358 cells (K-Ras G12C); assay: Potency assay: pERK in NCI-H358 cells; type: cell-based, human; settings: Homo sapiens, NCI-H358; H358 KRAS G12C; read-out: pERK EC50
Method in brief: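 4 h cpd, 37 °C; 10-pt 3-fold series, 10 mM DMSO top stock, duplicates. Readout pERK: AlphaLISA SureFire Ultra or In-Cell Western (IR-800CW secondary, DRAQ5 DNA stain). IC50, 4-PL fit vs log conc.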

[2] = system: NCI-H358 (K-Ras G12C); assay: CellTiter-Glo cell viability assay, NCI-H358; type: cell-based, human; settings: Homo sapiens, NCI-H358, 120 h, NCI-H358, 5-day treatment; class symbols; read-out: Additional H358 Cell Viability assay data (K-Ras G12C, IC50)
Method in brief: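 Viability measured by CellTiter-Glo luminescence on day 5 following direct addition of compound to plated cells. Values expressed as percent of mean DMSO signal; curves fitted with a four-parameter logistic model.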

[3] = target: K-Ras G12C (Homo sapiens (Human), UniProt P01116+P62937, G12C); assay: Ras-Raf (BRAF RBD) disruption / FRET / MOA assay, KRAS G12C; type: biochemical; settings: KRAS G12C; Ras-Raf disruption/FRET/MOA assay; read-out: IC50* KRAS G12C FRET data
K-Ras G12C, sequence (P01116-2 other isoform, or with tags, fused parts or gaps G12C): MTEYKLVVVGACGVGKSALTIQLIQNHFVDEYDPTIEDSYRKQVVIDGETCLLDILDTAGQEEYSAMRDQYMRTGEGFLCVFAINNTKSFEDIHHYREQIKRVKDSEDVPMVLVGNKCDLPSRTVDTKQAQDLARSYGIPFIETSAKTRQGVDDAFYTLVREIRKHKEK
K-Ras G12C, sequence (P62937 whole entry): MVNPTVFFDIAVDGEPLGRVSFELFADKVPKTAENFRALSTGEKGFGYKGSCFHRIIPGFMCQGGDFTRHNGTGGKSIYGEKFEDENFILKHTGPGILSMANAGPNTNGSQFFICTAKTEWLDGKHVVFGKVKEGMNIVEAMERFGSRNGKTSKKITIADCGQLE
Method in brief: (§1)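 Compound-driven ternary complex of nucleotide-loaded Ras with cyclophilin A, disrupting BRAF RBD binding. 10-point 3-fold dilution from 30 μM final, 3 h at 25° C, then anti-His Eu-W1024 (10 nM) and anti-GST allophycocyanin (50 nM) for 1.5 h. IC50 from TR-FRET ratio decrease versus DMSO.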

[4] = target: K-Ras G13C (Homo sapiens (Human), UniProt P01116+P62937, G13C); assay: Ras-Raf (BRAF RBD) disruption / FRET / MOA assay, KRAS G13C; type: biochemical; settings: KRAS G13C; Ras-Raf disruption/FRET/MOA assay; read-out: IC50* KRAS G13C FRET data
K-Ras G13C, sequence (P01116-2 other isoform, or with tags, fused parts or gaps G13C): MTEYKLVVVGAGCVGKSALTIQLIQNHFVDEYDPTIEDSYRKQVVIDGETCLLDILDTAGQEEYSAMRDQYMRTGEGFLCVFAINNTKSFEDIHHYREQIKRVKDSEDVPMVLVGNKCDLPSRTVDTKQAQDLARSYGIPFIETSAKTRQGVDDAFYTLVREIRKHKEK
K-Ras G13C, sequence (P62937 whole entry): as the sequence (P62937 whole entry) above
Method in brief: as §1

[5] = target: KRAS G12S (Homo sapiens (Human), UniProt P01116+P62937, G12S); assay: Ras-Raf (BRAF RBD) disruption / FRET / MOA assay, KRAS G12S; type: biochemical; settings: Ras-Raf disruption/FRET/MOA assay; class symbols; read-out: KRAS G12S FRET data IC50
KRAS G12S, sequence (P01116-2 other isoform, or with tags, fused parts or gaps G12S): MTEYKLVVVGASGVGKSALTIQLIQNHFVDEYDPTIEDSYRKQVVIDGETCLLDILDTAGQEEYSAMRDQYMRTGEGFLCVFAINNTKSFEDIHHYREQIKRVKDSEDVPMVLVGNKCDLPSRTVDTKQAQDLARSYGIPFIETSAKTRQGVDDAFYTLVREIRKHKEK
KRAS G12S, sequence (P62937 whole entry): as the sequence (P62937 whole entry) above
Method in brief: as §1

[6] = target: KRAS G12D (Homo sapiens (Human), UniProt P01116+P62937, G12D); assay: Ras-Raf (BRAF RBD) disruption / FRET / MOA assay, KRAS G12D; type: biochemical; settings: Ras-Raf disruption/FRET/MOA assay; class symbols; read-out: KRAS G12D FRET data IC50
KRAS G12D, sequence (P01116-2 other isoform, or with tags, fused parts or gaps G12D): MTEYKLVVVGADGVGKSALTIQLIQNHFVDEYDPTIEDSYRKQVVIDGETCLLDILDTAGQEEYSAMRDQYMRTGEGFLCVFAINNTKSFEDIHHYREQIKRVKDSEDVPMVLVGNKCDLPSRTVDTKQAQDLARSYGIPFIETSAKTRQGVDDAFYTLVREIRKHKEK
KRAS G12D, sequence (P62937 whole entry): as the sequence (P62937 whole entry) above
Method in brief: as §1

[7] = target: KRAS G12V (Homo sapiens (Human), UniProt P01116+P62937, G12V); assay: Ras-Raf (BRAF RBD) disruption / FRET / MOA assay, KRAS G12V; type: biochemical; settings: read-out: IC50* KRAS G12V FRET data
KRAS G12V, sequence (P01116-2 other isoform, or with tags, fused parts or gaps G12V): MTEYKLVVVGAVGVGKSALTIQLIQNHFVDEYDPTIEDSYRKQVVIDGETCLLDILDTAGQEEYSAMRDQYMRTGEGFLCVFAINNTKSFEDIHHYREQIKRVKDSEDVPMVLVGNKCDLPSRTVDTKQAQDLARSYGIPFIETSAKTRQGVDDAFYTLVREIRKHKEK
KRAS G12V, sequence (P62937 whole entry): as the sequence (P62937 whole entry) above
Method in brief: as §1

[8] = target: KRAS WT (Homo sapiens (Human), UniProt P01116+P62937); assay: Ras-Raf (BRAF RBD) disruption / FRET / MOA assay, KRAS WT; type: biochemical; settings: read-out: IC50* KRAS WT FRET data
KRAS WT, sequence (P01116-2 other isoform, or with tags, fused parts or gaps): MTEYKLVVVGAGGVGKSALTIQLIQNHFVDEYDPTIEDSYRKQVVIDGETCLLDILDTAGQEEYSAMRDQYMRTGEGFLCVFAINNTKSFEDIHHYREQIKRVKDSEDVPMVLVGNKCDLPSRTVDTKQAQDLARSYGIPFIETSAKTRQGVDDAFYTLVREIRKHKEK
KRAS WT, sequence (P62937 whole entry): as the sequence (P62937 whole entry) above
Method in brief: as §1

[9] = target: KRAS G13D (Homo sapiens (Human), UniProt P01116+P62937, G13D); assay: Ras-Raf (BRAF RBD) disruption / FRET / MOA assay, KRAS G13D; type: biochemical; settings: read-out: IC50* KRAS G13D FRET data
KRAS G13D, sequence (P01116-2 other isoform, or with tags, fused parts or gaps G13D): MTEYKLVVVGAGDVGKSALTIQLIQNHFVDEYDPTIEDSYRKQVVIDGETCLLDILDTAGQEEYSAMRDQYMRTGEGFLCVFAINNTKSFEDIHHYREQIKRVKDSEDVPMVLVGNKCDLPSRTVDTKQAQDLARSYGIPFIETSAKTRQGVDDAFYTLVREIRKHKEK
KRAS G13D, sequence (P62937 whole entry): as the sequence (P62937 whole entry) above
Method in brief: as §1

[10] = target: NRAS G12C (Homo sapiens (Human), UniProt P01111+P62937, G12C); assay: Ras-Raf (BRAF RBD) disruption / FRET / MOA assay, NRAS G12C; type: biochemical; settings: read-out: IC50* NRAS G12C FRET data
NRAS G12C, sequence (P01111 whole entry G12C): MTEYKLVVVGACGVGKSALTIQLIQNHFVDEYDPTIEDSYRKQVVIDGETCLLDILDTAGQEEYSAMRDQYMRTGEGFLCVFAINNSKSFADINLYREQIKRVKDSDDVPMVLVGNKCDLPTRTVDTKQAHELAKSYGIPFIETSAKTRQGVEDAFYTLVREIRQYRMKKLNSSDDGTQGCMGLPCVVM
NRAS G12C, sequence (P62937 whole entry): as the sequence (P62937 whole entry) above
Method in brief: as §1

Row | SMILES | EC50 [1] [µM] | IC50 [2] [nM] | IC50 [3] [nM] | IC50 [4] [nM] | IC50 [5] [µM] | IC50 [6] [µM] | IC50 [7] [nM] | IC50 [8] [nM] | IC50 [9] [µM] | IC50 [10] [nM]
1 | CCn1c(-c2cccnc2[C@H](C)OC)c2c3cc(ccc31)-c1cc(O)cc(c1)C[C@H](NC(=O)[C@H](C(C)C)N(C)C(=O)c1ncc(NC(=O)/C=C/CN(C)C)s1)C(=O)N1CCC[C@H](N1)C(=O)OCC(C)(C)C2 (atropisomer, axis not shown) [Example A253] | < 5 | 100 to 1000 | 10 to 100 | < 10 | 1 to 10 | 1 to 10 | 100 to 1000 | 100 to 1000 | 0.1 to 1 | 100 to 1000
2 | C=CC(=O)N1CC(OC[C@H](C(=O)N[C@H]2Cc3cc(O)cc(c3)-c3ccc4c(c3)c(c(-c3cccnc3COC)n4CC)CC(C)(C)COC(=O)[C@@H]3CCCN(N3)C2=O)C(C)C)C1 [Example A232] | < 5 | 10 to 100 | 100 to 1000 | 100 to 1000 | > 10 | > 10 | 1000 to 10000 | 1000 to 10000 | 1 to 10 | 100 to 1000
3 | C=CC(=O)N1CC[C@H](C(=O)N(C)[C@H](C(=O)N[C@H]2Cc3cc(O)cc(c3)-c3ccc4c(c3)c(c(-c3cnccc3[C@@H](OC)C3CC3)n4CC)CC(C)(C)COC(=O)[C@@H]3CCCN(N3)C2=O)C(C)C)C1 [Example A274] | < 5 | 100 to 1000 | 1000 to 10000 | > 10000 | > 10 | > 10 | > 10000 | > 10000 | > 10 | 1000 to 10000
4 | CCn1c(-c2cccnc2[C@H](C)OC)c2c3cc(ccc31)-c1cc(O)cc(c1)C[C@H](NC(=O)[C@H](C(C)C)N(C)C(=O)c1ccc(NC(=O)/C=C/CN(C)C)nc1)C(=O)N1CCC[C@H](N1)C(=O)OCC(C)(C)C2 (atropisomer, axis not shown) [Example A249] | < 5 | 100 to 1000 | 100 to 1000 | 10 to 100 | 1 to 10 | > 10 | 1000 to 10000 | 1000 to 10000 | 1 to 10 | 100 to 1000
5 | C=CC(=O)N1C[C@H](C(=O)N(C)[C@H](C(=O)N[C@H]2Cc3cccc(c3)-c3ccc4c(c3)c(c(-c3cccnc3[C@H](C)OC)n4CC)CC(C)(C)COC(=O)[C@@H]3CCCN(N3)C2=O)C(C)C)[C@@H](C)C1 (atropisomer, axis not shown) [Example A451] | < 5 | 10 to 100 | 100 to 1000 | 100 to 1000 | 1 to 10 | 1 to 10 | 1000 to 10000 | 1000 to 10000 | 1 to 10 | 100 to 1000
6 | C=CC(=O)Nc1cnc(C(=O)N(C)[C@H](C(=O)N[C@H]2Cc3cccc(c3)-c3ccc4c(c3)c(c(-c3cccnc3[C@H](C)OC)n4CC)CC(C)(C)COC(=O)[C@@H]3CCCN(N3)C2=O)C(C)C)n1C (atropisomer, axis not shown) [Example A524] | < 5 | 10 to 100 | 100 to 1000 | 100 to 1000 | > 10 | > 10 | > 10000 | > 10000 | > 10 | 100 to 1000
7 | C=CC(=O)N1CC2(C1)CN(C(=O)N(C)[C@H](C(=O)N[C@H]1Cc3nc(cs3)-c3ccc4c(c3)c(c(-c3cccnc3[C@H](C)OC)n4CC)CC(C)(C)COC(=O)[C@@H]3CCCN(N3)C1=O)C(C)C)CCO2 (atropisomer, axis not shown) [Example A431] | < 5 | 10 to 100 | 100 to 1000 | 100 to 1000 | 0.1 to 1 | 1 to 10 | 100 to 1000 | 100 to 1000 | 1 to 10 | 100 to 1000
8 | CC#CC(=O)N1CC[C@@H](C(=O)N(C)[C@H](C(=O)N[C@H]2Cc3cc(O)cc(c3)-c3ccc4c(c3)c(c(-c3cncnc3)n4CC)CC(C)(C)COC(=O)[C@@H]3CCCN(N3)C2=O)C(C)C)C1 [Example A169] | < 5 | 100 to 1000 | 100 to 1000 | 1000 to 10000 | 1 to 10 | > 10 | 1000 to 10000 | 1000 to 10000 | > 10 | 100 to 1000
